Results as given in patent publication US6896895B2, “Carotenoid esters, carotenoid-enriched feeds, and methods of pigmenting foods and foodstuffs” (DSM IP Assets B.V., priority 2000, dated 2005).

What was measured:
[1] = Carotenoid ester content and deposition rate in egg yolk of laying hens (HPLC); assay type: in vivo, laying hens (ISA Brown); set-up: Deposition Rate Value: unit not given here; settings: for Deposition Rate Target Values % of Controls / Ethyl β-apo-8′-carotenoate Equivalents % of Controls / Deposition Rate % of Controls / Deposition Rate Target Values / Ethyl β-apo-8′-carotenoate Equivalents / Deposition Rate Value: egg yolk; for Deposition Rate % of Controls / Deposition Rate Value: Table 9
Procedure, shortened: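 Hens were first depleted for at least 28 days on a low-carotenoid basal diet (<2 mg total xanthophylls/kg, also the control diet), then fed mash supplemented with the pigments ad libitum for three weeks. Pooled homogenised yolk was extracted with ethanol/n-hexane and analysed by HPLC, calibrated with all-E ethyl β-apo-8′-carotenoate. Response factors were adjusted by molecular weight, and Z-isomers were corrected by a factor of 1.4.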

[2] = system: egg yolk; assay: Egg yolk colour: reflectance colorimetry and Roche Yolk Colour Fan; assay type: in vivo, laying hens (ISA Brown); set-up: key to Chroma C*ab Value: CIE L*a*b* chroma C* value; key to Color Fan Value / Color Fan Value Value: visual score on Roche Yolk Colour Fan (RYCF, 1993 version); key to Color Fan Value, Pigmentation: − = off color; + = good color; settings: laying hens; for Color Fan Value % of Controls / Chroma C*ab % of Controls / Color Hue h*ab % of Controls / Chroma C*ab Value / Color Fan Value / Color Hue h*ab Value / Color Fan Value Value / Color Fan Value, Pigmentation: egg yolk
Procedure, shortened: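 ISA Brown laying hens, depleted at least 28 days on low-carotenoid basal diet (<2 mg xanthophylls/kg), fed pigment-supplemented mash ad libitum for three weeks. Pooled yolks of three to six eggs scored with Roche Yolk Colour Fan and measured by reflectance colorimetry (D65, 8°) as CIE L*a*b*, h*, C*; values average four yolk pools.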

[3] = trial H-12/99, 1.0 mg/kg feed, Table 9
[4] = trial H-12/99, 2.0 mg/kg feed, Table 9
[5] = trial H-12/99, 4.0 mg/kg feed, Table 9
[6] = trial H-12/99, 8.0 mg/kg feed, Table 9
[7] = trial H-19/98, 4.0 mg/kg feed, Table 9
[8] = trial H-25/98, 5.0 mg/kg feed, Table 9

- Deposition Rate Target Values % of Controls ([1]; average over doses, Table 7): 101%
- Ethyl β-apo-8′-carotenoate Equivalents % of Controls ([1]; average over doses, Table 7): 91%
- Deposition Rate % of Controls ([1]; average over doses): 101%
- Deposition Rate Target Values ([1]; trial H-12/99, 1.0 mg/kg feed): 44%
- Deposition Rate Target Values % of Controls ([1]; trial H-12/99, 1.0 mg/kg feed): 97%
- Ethyl β-apo-8′-carotenoate Equivalents ([1]; trial H-12/99, 1.0 mg/kg feed): 2.6 mg/kg
- Ethyl β-apo-8′-carotenoate Equivalents % of Controls ([1]; trial H-12/99, 1.0 mg/kg feed): 97%
- Deposition Rate % of Controls ([1]; trial H-12/99, 1.0 mg/kg feed): 97%
- Deposition Rate Value ([1]; trial H-12/99, 1.0 mg/kg feed): 44
- Deposition Rate Target Values ([1]; trial H-12/99, 2.0 mg/kg feed): 44%
- Deposition Rate Target Values % of Controls ([1]; trial H-12/99, 2.0 mg/kg feed): 100%
- Ethyl β-apo-8′-carotenoate Equivalents ([1]; trial H-12/99, 2.0 mg/kg feed): 5.2 mg/kg
- Ethyl β-apo-8′-carotenoate Equivalents % of Controls ([1]; trial H-12/99, 2.0 mg/kg feed): 94%
- Deposition Rate % of Controls ([1]; trial H-12/99, 2.0 mg/kg feed): 100%
- Deposition Rate Value ([1]; trial H-12/99, 2.0 mg/kg feed): 44
- Deposition Rate Target Values ([1]; trial H-12/99, 4.0 mg/kg feed): 42%
- Deposition Rate Target Values % of Controls ([1]; trial H-12/99, 4.0 mg/kg feed): 85%
- Ethyl β-apo-8′-carotenoate Equivalents ([1]; trial H-12/99, 4.0 mg/kg feed): 9.6 mg/kg
- Ethyl β-apo-8′-carotenoate Equivalents % of Controls ([1]; trial H-12/99, 4.0 mg/kg feed): 81%
- Deposition Rate % of Controls ([1]; trial H-12/99, 4.0 mg/kg feed): 85%
- Deposition Rate Value ([1]; trial H-12/99, 4.0 mg/kg feed): 42
- Deposition Rate Target Values ([1]; trial H-12/99, 8.0 mg/kg feed): 49%
- Deposition Rate Target Values % of Controls ([1]; trial H-12/99, 8.0 mg/kg feed): 104%
- Ethyl β-apo-8′-carotenoate Equivalents ([1]; trial H-12/99, 8.0 mg/kg feed): 23.1 mg/kg
- Ethyl β-apo-8′-carotenoate Equivalents % of Controls ([1]; trial H-12/99, 8.0 mg/kg feed): 96%
- Deposition Rate % of Controls ([1]; trial H-12/99, 8.0 mg/kg feed): 104%
- Deposition Rate Value ([1]; trial H-12/99, 8.0 mg/kg feed): 49
- Deposition Rate Target Values ([1]; trial H-19/98, 4.0 mg/kg feed): 54%
- Deposition Rate Target Values % of Controls ([1]; trial H-19/98, 4.0 mg/kg feed): 117%
- Ethyl β-apo-8′-carotenoate Equivalents ([1]; trial H-19/98, 4.0 mg/kg feed): 11.1 mg/kg
- Ethyl β-apo-8′-carotenoate Equivalents % of Controls ([1]; trial H-19/98, 4.0 mg/kg feed): 95%
- Deposition Rate % of Controls ([1]; trial H-19/98, 4.0 mg/kg feed): 117%
- Deposition Rate Value ([1]; trial H-19/98, 4.0 mg/kg feed): 54
- Deposition Rate % of Controls ([1]; trial H-25/98, 5.0 mg/kg feed): 106%
- Deposition Rate Value ([1]; trial H-25/98, 5.0 mg/kg feed): 50
- Deposition Rate Target Values ([1]; trial H-25/99, 5.0 mg/kg feed): 50%
- Deposition Rate Target Values % of Controls ([1]; trial H-25/99, 5.0 mg/kg feed): 100%
- Ethyl β-apo-8′-carotenoate Equivalents ([1]; trial H-25/99, 5.0 mg/kg feed): 13.3 mg/kg
- Ethyl β-apo-8′-carotenoate Equivalents % of Controls ([1]; trial H-25/99, 5.0 mg/kg feed): 84%
- concentration in the egg yolk ([1]; versus the control): in the range of the control
Compound: CC1=C(/C=C/C(C)=C/C=C/C(C)=C/C=C/C=C(C)/C=C/C=C(\C)C(=O)OC(C)C)C(C)(C)CCC1 [compound (17), isopropyl beta-apo-8′-carotenoate]
- Color Fan Value % of Controls ([2]; average over doses, Table 7): 105%
- Chroma C*ab % of Controls ([2]; average over doses, Table 9): 98%
- Color Fan Value % of Controls ([2]; average over doses, Table 9): 105%
- Color Hue h*ab % of Controls ([2]; average over doses, Table 9): 101%
- Chroma C*ab % of Controls ([2]; trial H-12/99, 1.0 mg/kg feed): 98%
- Chroma C*ab Value ([2]; trial H-12/99, 1.0 mg/kg feed): 39
- Color Fan Value ([2]; trial H-12/99, 1.0 mg/kg feed): 3
- Color Fan Value % of Controls ([2]; trial H-12/99, 1.0 mg/kg feed): 66%
- Color Hue h*ab % of Controls ([2]; trial H-12/99, 1.0 mg/kg feed): 101%
- Color Hue h*ab Value ([2]; trial H-12/99, 1.0 mg/kg feed): 95
- Color Fan Value % of Controls [2, 3]: 66%
- Color Fan Value Value [2, 3]: 3
- Chroma C*ab % of Controls ([2]; trial H-12/99, 2.0 mg/kg feed): 100%
- Chroma C*ab Value ([2]; trial H-12/99, 2.0 mg/kg feed): 45
- Color Fan Value ([2]; trial H-12/99, 2.0 mg/kg feed): 6
- Color Fan Value % of Controls ([2]; trial H-12/99, 2.0 mg/kg feed): 104%
- Color Fan Value, Pigmentation ([2]; trial H-12/99, 2.0 mg/kg feed): +
- Color Hue h*ab % of Controls ([2]; trial H-12/99, 2.0 mg/kg feed): 101%
- Color Hue h*ab Value ([2]; trial H-12/99, 2.0 mg/kg feed): 93
- Color Fan Value % of Controls [2, 4]: 104%
- Color Fan Value Value [2, 4]: 6
- Color Fan Value, Pigmentation [2, 4]: +
- Chroma C*ab % of Controls ([2]; trial H-12/99, 4.0 mg/kg feed): 98%
- Chroma C*ab Value ([2]; trial H-12/99, 4.0 mg/kg feed): 51
- Color Fan Value ([2]; trial H-12/99, 4.0 mg/kg feed): 6
- Color Fan Value % of Controls ([2]; trial H-12/99, 4.0 mg/kg feed): 97%
- Color Fan Value, Pigmentation ([2]; trial H-12/99, 4.0 mg/kg feed): +
- Color Hue h*ab % of Controls ([2]; trial H-12/99, 4.0 mg/kg feed): 102%
- Color Hue h*ab Value ([2]; trial H-12/99, 4.0 mg/kg feed): 90
- Color Fan Value % of Controls [2, 5]: 97%
- Color Fan Value Value [2, 5]: 6
- Color Fan Value, Pigmentation [2, 5]: +
- Chroma C*ab % of Controls ([2]; trial H-12/99, 8.0 mg/kg feed): 96%
- Chroma C*ab Value ([2]; trial H-12/99, 8.0 mg/kg feed): 54
- Color Fan Value ([2]; trial H-12/99, 8.0 mg/kg feed): 9
- Color Fan Value % of Controls ([2]; trial H-12/99, 8.0 mg/kg feed): 156%
- Color Fan Value, Pigmentation ([2]; trial H-12/99, 8.0 mg/kg feed): +
- Color Hue h*ab % of Controls ([2]; trial H-12/99, 8.0 mg/kg feed): 100%
- Color Hue h*ab Value ([2]; trial H-12/99, 8.0 mg/kg feed): 85
- Color Fan Value % of Controls [2, 6]: 156%
- Color Fan Value Value [2, 6]: 9
- Color Fan Value, Pigmentation [2, 6]: +
- Chroma C*ab % of Controls ([2]; trial H-19/98, 4.0 mg/kg feed): 97%
- Chroma C*ab Value ([2]; trial H-19/98, 4.0 mg/kg feed): 51
- Color Fan Value ([2]; trial H-19/98, 4.0 mg/kg feed): 5
- Color Fan Value % of Controls ([2]; trial H-19/98, 4.0 mg/kg feed): 79%
- Color Fan Value, Pigmentation ([2]; trial H-19/98, 4.0 mg/kg feed): +
- Color Hue h*ab % of Controls ([2]; trial H-19/98, 4.0 mg/kg feed): 106%
- Color Hue h*ab Value ([2]; trial H-19/98, 4.0 mg/kg feed): 89
- Color Fan Value % of Controls [2, 7]: 79%
- Color Fan Value Value [2, 7]: 5
- Color Fan Value, Pigmentation [2, 7]: +
- Chroma C*ab % of Controls ([2]; trial H-25/98, 5.0 mg/kg feed): 99%
- Chroma C*ab Value ([2]; trial H-25/98, 5.0 mg/kg feed): 52
- Color Hue h*ab % of Controls ([2]; trial H-25/98, 5.0 mg/kg feed): 98%
- Color Hue h*ab Value ([2]; trial H-25/98, 5.0 mg/kg feed): 86
- Color Fan Value % of Controls [2, 8]: 130%
- Color Fan Value Value [2, 8]: 9
- Color Fan Value ([2]; trial H-25/99, 5.0 mg/kg feed): 9
- Color Fan Value % of Controls ([2]; trial H-25/99, 5.0 mg/kg feed): 130%
- quality in terms of deposition rate and color intensity (chroma C*a*b*) in the egg yolk ([2]; compared to the control): comparable quality
